*1 amine or outer side, *2 acyl side, *3 side chain or, on linkers, in order; H or OH if unused. Where a SMILES comes first, the peptide text is derived from it. Side-chain parts run from the residue outwards. [ ]: non-standard residue; d: D form. The star is where a group is joined. γGlu = O=C(O)[C@H](CCC(=O)[*:2])N[*:1]; Palmitoyl = CCCCCCCCCCCCCCCC(=O)*; Aib = CC(C)(N)C(=O)O

What all share (assay type): cell-based
The target in assay [1] is T1, human glucagon receptor (Glucagon-R) (Homo sapiens, UniProt P47871).
T1 construct: expressed in transfected cells
T1 sequence (P47871 26-477): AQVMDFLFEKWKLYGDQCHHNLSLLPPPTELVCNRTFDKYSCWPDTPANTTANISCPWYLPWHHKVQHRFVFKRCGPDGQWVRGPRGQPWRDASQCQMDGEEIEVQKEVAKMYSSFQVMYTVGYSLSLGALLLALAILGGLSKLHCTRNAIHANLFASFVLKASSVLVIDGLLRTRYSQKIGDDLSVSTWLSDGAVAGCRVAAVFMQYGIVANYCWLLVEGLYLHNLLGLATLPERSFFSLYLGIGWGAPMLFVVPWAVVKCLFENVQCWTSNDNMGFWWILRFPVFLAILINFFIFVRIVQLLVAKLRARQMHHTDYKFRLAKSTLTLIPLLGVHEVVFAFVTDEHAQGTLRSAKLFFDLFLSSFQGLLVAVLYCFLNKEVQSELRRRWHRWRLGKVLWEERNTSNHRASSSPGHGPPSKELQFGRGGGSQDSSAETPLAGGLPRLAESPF
Put plainly: Glucagon receptor efficacy assay (cAMP AlphaScreen, CHO cells). The conditions noted are these: Table 1B; same protocol, different laboratory; read-out: EC50 hGCGR CHO-K1. The text has this: (§1) The cDNA encoding either the human glucagon receptor (Glucagon-R) (primary accession number P47871) or the human glucagon-like peptide 1 receptor (GLP-1R) (primary accession number P43220) were synthesized and cloned into a mammalian expression vector containing a Zeocin resistance marker.
(§2) The mammalian expression vectors encoding the Glucagon-R or the GLP-1-R were transfected into Chinese hamster ovary (CHO) cells by the Attractene method method. Stably expressing clones were obtained by Zeocin selection (250 μg/mL) upon limited dilution of cells resistant to the selection pressure. Glucagon-R and GLP-1-R cell clones expressing were picked, propagated and tested in the Glucagon-R and GLP-1-R efficacy assays as described below. One Glucagon-R expressing clone and one GLP-1-R expressing clone were chosen for compound profiling.
(§3) CHO cells expressing the human Glucagon-R, or human GLP-1-R were seeded 24 hours prior to the assay at 30,000 cells per well in 96-well microtiter plates in culture in 100 μl growth medium. On the day of analysis, growth medium was removed and the cells were washed once with 200 μl of assay buffer (Krebs-Ringer-buffer—KRBH). The buffer was removed and the cells were incubated for 15 min at room temperature in 10 μl KRBH (KRBH+10 mM HEPES, 5 mM NaHCO3, 0.1% (V/V) BSA) with 0.1 mM IBMX in deionized water containing increasing concentrations of test peptides. The reaction was stopped by the addition of lysis buffer (0.1% w/v BSA, 5 mM HEPES, 0.3% v/v Tween-20). After cell lysis for 10 min at room temperature, lysates were transferred to 384-well plates and 10 μl of acceptor/donorbead mixture as contained in the AlphaScreen™ cAMP Functional Assay Kit was added. After one hour of incubation at room temperature in the dark, the cAMP content was determined applying the AlphaScreen™ cAMP Functional Assay Kit from Perkin-Elmer according to manufacturer instructions. EC50 and relative efficacies compared to reference compounds (glucagon and GLP-1) were calculated applying computer aided curve fitting. The GLP-1/glucagon ratio is calculated as defined earlier.

Assay [2] concerns the target T2, human glucagon-like peptide 1 receptor (GLP-1R) (Homo sapiens, UniProt P43220).
T2 construct: expressed in transfected cells
Put plainly: GLP-1 receptor efficacy assay (cAMP AlphaScreen, CHO cells). The conditions noted are these: Table 1B; for Ratio GLP-1/Glucagon: EC50 [GLP-1R]/EC50 [Glucagon-R]; for EC50: same protocol, different laboratory, read-out: EC50 hGLP-1R CHO-K1.
Description: as §1, §2, §3
In general terms: Bead proximity is the source of the signal in Alpha formats.

The target in assay [3] is T3, endogenous GLP-1 receptors (Mus musculus, UniProt O35659).
T3 construct: Agonistic activity of the test compounds on endogenous GLP-1 receptors; endogenous in cells
T3 sequence (O35659 22-463): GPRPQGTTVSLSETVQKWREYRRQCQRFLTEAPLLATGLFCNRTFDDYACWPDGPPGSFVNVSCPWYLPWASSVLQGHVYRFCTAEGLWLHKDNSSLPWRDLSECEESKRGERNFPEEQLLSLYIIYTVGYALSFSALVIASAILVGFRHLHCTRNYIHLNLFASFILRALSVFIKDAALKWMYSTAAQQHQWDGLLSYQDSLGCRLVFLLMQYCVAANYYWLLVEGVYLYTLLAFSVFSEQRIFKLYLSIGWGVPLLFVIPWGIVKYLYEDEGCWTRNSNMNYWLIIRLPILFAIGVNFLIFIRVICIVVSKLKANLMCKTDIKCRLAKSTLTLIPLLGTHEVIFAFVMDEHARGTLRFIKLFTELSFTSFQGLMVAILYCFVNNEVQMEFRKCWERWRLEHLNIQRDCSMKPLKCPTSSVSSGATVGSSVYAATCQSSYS
Put plainly: Agonistic activity on endogenous GLP-1 receptor (cAMP, murine insulinoma cell line). Particulars: intracellular cAMP, 15 minutes at 26° C.; read-out: EC50 GLP-1R (murine insulinoma cells). The protocol:
Agonistic activity of the test compounds on endogenous GLP-1 receptors was determined using a murine insulinoma cell line. Intracellular cAMP was used an indicator of receptor activation.
Cells were cultured for 24 h at a density of 10,000 cells/well in a 384-well plate. Medium was removed and 10 μL KRBH buffer (NaCl 130 mM, KCl 3.6 mM, NaH2PO4 0.5 mM, MgSO4 0.5 mM, CaCl2) 1.5 mM) containing test compound or GLP-1 (at increasing concentrations from […] to 100 nM) or solvent control (0.1% (v/v) DMSO) was added to the wells for 15 minutes at a temperature of 26° C.
The cellular cAMP content is measured using the AlphaScreen cAMP Functional Assay Kit (Perkin Elmer). Measurement was performed using the Envision (PerkinElmer) according to manufacturer's recommendations.
All measurements were performed in quadruplicate.
Results were converted into cAMP concentrations using a cAMP standard curve prepared in KRBH buffer containing 0.1% (v/v) DMSO. The resulting cAMP curves were plotted as absolute cAMP concentrations (nM) over log (test compound concentration) and analyzed using the curve fitting program XLfit.
Parameters calculated to describe the both the potency as well as the agonistic activity of each test compound on the endogenous GLP-1 receptors were:
pEC50 (negative logarithmic value of EC50, a concentration resulting in a half-maximal elevation of cAMP levels, reflecting the potency of the test compound);
Percent control (% CTL)(% cAMP elevation for each test compound concentration normalized based on the GLP-1-induced maximum cAMP response (100% CTL)).

Assay [4] deals with T4, endogenous glucagon receptor (Rattus norvegicus, UniProt P30082).
T4 construct: Agonistic activity of the test compounds on endogenous glucagon receptor; endogenous in cells; host or cells: primary rat hepatocytes
T4 sequence (P30082 27-485): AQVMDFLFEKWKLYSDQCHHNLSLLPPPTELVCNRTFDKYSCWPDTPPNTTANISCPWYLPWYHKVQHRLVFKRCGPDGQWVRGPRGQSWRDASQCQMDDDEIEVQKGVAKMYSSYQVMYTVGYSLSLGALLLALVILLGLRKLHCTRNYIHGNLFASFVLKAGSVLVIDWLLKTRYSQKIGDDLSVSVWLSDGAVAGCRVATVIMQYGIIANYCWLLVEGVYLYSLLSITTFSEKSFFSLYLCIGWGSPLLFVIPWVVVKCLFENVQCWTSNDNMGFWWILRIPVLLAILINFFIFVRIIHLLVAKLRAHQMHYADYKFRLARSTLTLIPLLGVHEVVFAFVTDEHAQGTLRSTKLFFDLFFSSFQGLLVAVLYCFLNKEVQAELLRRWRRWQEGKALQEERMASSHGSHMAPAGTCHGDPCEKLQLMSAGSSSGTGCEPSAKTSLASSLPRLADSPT
Put plainly: Agonistic activity on endogenous glucagon receptor (glycogen synthesis rate in primary rat hepatocytes). Particulars: inhibition of glycogen synthesis rate, 3 hours, read-out: EC50 GLP-1R Rat hepat. The protocol: Agonistic activity of the test compounds on endogenous glucagon receptor was determined by measuring their effect on rate of glycogen synthesis in primary rat hepatocytes. Upon activation of the glucagon receptor, an inhibition of the glycogen synthesis rate is expected. Rate of glycogen synthesis was determined by counting the amount of radioactively labeled glucose incorporated into the cellular glycogen stores in a defined period of time.
Primary rat hepatocytes were cultured at a density of 40,000 cells/well in a 24-well plate for 24 hours at 37° C. and 5% CO2.
Medium was discarded and the cells washed with PBS. 180 μL of KRBH-based buffer containing 0.1% BSA and glucose at a concentration of 22.5 mM was then added to the wells, followed by test compound and 40 μCi/ml D-[U14C] glucose (20 μL each). Incubation was continued for 3 hours.
At the end of the incubation period, the incubation buffer was aspirated and cells washed once with ice-cold PBS before lysis by incubation for 30 min at room temperature with 100 μL 1 mol/l NaOH.
Cell lysates were transferred to 96-well filter plates and glycogen precipitated by incubating the filter-plates for 120 min at 4° C. followed by washing the filter plates 4 times with ice-cold ethanol (70%). The resulting precipitates were filtered to dryness and the amount of incorporated ^14C-glucose determined by using a Topcount scintillation counter according to manufacturer's recommendations.
Wells with vehicle controls (0.1% (v/v) DMSO in KRBH buffer) were included as reference for non-inhibited glycogen synthesis (100% CTL). Wells without added D-[U^14C] glucose were included as controls for non-specific background signal (subtracted from all values). Endogenous glucagon peptide was used as a positive control.
All treatments were performed at least in triplicates.
Parameters calculated to describe the both the potency as well as the agonistic activity of each test compound on the endogenous glucagon receptor are pEC50 and % CTL. % CTL is determined by calculating the percentage of CPM/well in the presence of the test compound compared to the CPM/well of the vehicle control after subtracting the background CPM/well: [CPM/well(basal)−CPM/well(sample)]*100/[CPM/well(basal)−CPM/well(control)]
An activator of the glucagon receptor will result in an inhibition of the glycogen synthesis rate and will give % CTL values between 0% CTL (complete inhibition) and 100% CTL (no observable inhibition).
The resulting activity curves were plotted as absolute counts (unit: cpm/sample) over log (test compound concentration) and analyzed using the curve fitting program XLfit.
pEC50 (negative logarithmic value of EC50) reflects the potency of the test compound.
The terms EC50 and pEC50 quoted in relation to GLP-1R activation could equally be regarded as IC50 and pIC50 in relation to glycogen synthesis.

T2 sequence (P43220 24-463): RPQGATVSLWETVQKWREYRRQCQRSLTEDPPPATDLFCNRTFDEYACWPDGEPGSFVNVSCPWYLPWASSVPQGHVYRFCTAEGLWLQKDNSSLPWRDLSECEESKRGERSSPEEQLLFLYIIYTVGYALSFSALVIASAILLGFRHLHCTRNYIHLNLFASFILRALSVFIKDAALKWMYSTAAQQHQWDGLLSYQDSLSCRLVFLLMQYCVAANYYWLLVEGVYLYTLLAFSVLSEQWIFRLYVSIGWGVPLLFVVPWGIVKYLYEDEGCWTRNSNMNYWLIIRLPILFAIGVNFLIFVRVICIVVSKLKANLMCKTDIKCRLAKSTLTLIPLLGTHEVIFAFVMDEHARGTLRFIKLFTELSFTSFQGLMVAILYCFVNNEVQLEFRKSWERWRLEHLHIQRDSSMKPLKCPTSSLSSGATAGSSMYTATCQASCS

In the case of `CCCCCCCCCCCCCCCC(=O)N[C@@H](CCC(=O)NCCCC[C@H](NC(=O)[C@H](CCC(=O)O)NC(=O)[C@H](CCC(=O)O)NC(=O)[C@H](CC(C)C)NC(=O)[C@H](Cc1ccc(O)cc1)NC(=O)[C@H](CCCCN)NC(=O)[C@H](CO)NC(=O)[C@H](Cc1ccc(O)cc1)NC(=O)[C@H](CC(=O)O)NC(=O)[C@H](CO)NC(=O)[C@@H](NC(=O)[C@H](Cc1ccccc1)NC(=O)[C@@H](NC(=O)CNC(=O)[C@H](CCC(N)=O)NC(=O)C(C)(C)NC(=O)[C@@H](N)Cc1c[nH]cn1)[C@@H](C)O)[C@@H](C)O)C(=O)N[C@@H](C)C(=O)N[C@@H](C)C(=O)N[C@@H](CCCCN)C(=O)N[C@@H](CC(=O)O)C(=O)N[C@@H](Cc1ccccc1)C(=O)N[C@H](C(=O)N[C@@H](CCC(=O)O)C(=O)N[C@@H](Cc1c[nH]c2ccccc12)C(=O)N[C@@H](CC(C)C)C(=O)N[C@@H](CCC(=O)O)C(=O)N[C@@H](CO)C(=O)N[C@@H](C)C(N)=O)[C@@H](C)CC)C(=O)O` [Compound 20, H-H-Aib-QGTFTSDYSKYLEE-K(Hexadecanoyl-isoGlu)-AAKDFIEWLESA-NH2] (H-H[Aib]QGTFTSDYSKYLEEK([γGlu-Palmitoyl])AAKDFIEWLESA-NH2), the EC50 in assay [1] amounted to 0.68 nM; in assay [2], 0.23 nM; in assay [3] it was 0.27 nM; in assay [4], 0.39 nM. The “Ratio GLP-1/Glucagon” value in assay [2] amounted to 0.34.

On to `CCCCCCCCCCCCCCCC(=O)N[C@@H](CCC(=O)NCCCC[C@H](NC(=O)[C@H](CO)NC(=O)[C@H](CCC(=O)O)NC(=O)[C@H](CC(C)C)NC(=O)[C@H](Cc1ccc(O)cc1)NC(=O)[C@H](CCCCN)NC(=O)[C@H](CO)NC(=O)[C@H](Cc1ccc(O)cc1)NC(=O)[C@H](CC(=O)O)NC(=O)[C@H](CO)NC(=O)[C@@H](NC(=O)[C@H](Cc1ccccc1)NC(=O)[C@@H](NC(=O)CNC(=O)[C@H](CCC(N)=O)NC(=O)C(C)(C)NC(=O)[C@@H](N)Cc1c[nH]cn1)[C@@H](C)O)[C@@H](C)O)C(=O)N[C@@H](C)C(=O)N[C@@H](C)C(=O)N[C@@H](CCC(=O)O)C(=O)N[C@@H](CC(=O)O)C(=O)N[C@@H](Cc1ccccc1)C(=O)N[C@H](C(=O)N[C@@H](CCC(=O)O)C(=O)N[C@@H](Cc1c[nH]c2ccccc12)C(=O)N[C@@H](CC(C)C)C(=O)N[C@@H](CCC(=O)O)C(=O)N[C@@H](CO)C(=O)N[C@@H](C)C(N)=O)[C@@H](C)CC)C(=O)O` [Compound 21, H-H-Aib-QGTFTSDYSKYLES-K(Hexadecanoyl-isoGlu)-AAEDFIEWLESA-NH2] (H-H[Aib]QGTFTSDYSKYLESK([γGlu-Palmitoyl])AAEDFIEWLESA-NH2), for which the half-maximal effective concentration (EC50) in assay [1] was 1.32 nM; in assay [2] it was 0.12 nM; in assay [3] it was 0.3 nM; in assay [4], 3.4 nM. In assay [2], the “Ratio GLP-1/Glucagon” value was 0.09.

For the compound `CCCCCCCCCCCCCCCC(=O)N[C@@H](CCC(=O)NCCCC[C@H](NC(=O)[C@H](CCC(=O)O)NC(=O)[C@H](CCC(=O)O)NC(=O)[C@H](CC(C)C)NC(=O)[C@H](Cc1ccc(O)cc1)NC(=O)[C@H](CCCCN)NC(=O)[C@H](CO)NC(=O)[C@H](Cc1ccc(O)cc1)NC(=O)[C@H](CC(=O)O)NC(=O)[C@H](CO)NC(=O)[C@@H](NC(=O)[C@H](Cc1ccccc1)NC(=O)[C@@H](NC(=O)CNC(=O)[C@H](CCC(N)=O)NC(=O)[C@H](CO)NC(=O)[C@@H](N)Cc1c[nH]cn1)[C@@H](C)O)[C@@H](C)O)C(=O)N[C@@H](C)C(=O)N[C@@H](C)C(=O)N[C@@H](CCCCN)C(=O)N[C@@H](CC(=O)O)C(=O)N[C@@H](Cc1ccccc1)C(=O)N[C@H](C(=O)N[C@@H](CCC(=O)O)C(=O)N[C@@H](Cc1c[nH]c2ccccc12)C(=O)N[C@@H](CC(C)C)C(=O)N[C@@H](CCC(=O)O)C(=O)N[C@@H](CO)C(=O)N[C@@H](C)C(N)=O)[C@@H](C)CC)C(=O)O` [Compound 22, H-HSQGTFTSDYSKYLEE-K(Hexadecanoyl-isoGlu)-AAKDFIEWLESA-NH2] (H-HSQGTFTSDYSKYLEEK([γGlu-Palmitoyl])AAKDFIEWLESA-NH2), the 50% effective concentration (EC50) amounted to 0.1 nM in assay [1], 0.24 nM in assay [2], 0.35 nM in assay [3] and 0.28 nM in assay [4]. In addition, in assay [2], the “Ratio GLP-1/Glucagon” value amounted to 2.40.

A word on the EC50: it is the concentration that produces a half-maximal response.

The record behind these values is patent publication US10253081B2, “Glucagon analogues” (Zealand Pharma A/S, priority 2012, dated 2019).
